Experimental data reported in patent publication USRE47078E1, “Polymorphic forms of N-[4-(trifluoromethyl)benzyl]-4-methoxybutyramide” (Laboratorio Farmaceutico C.T. S.R.L., priority 2007, dated 2018).
Values after ≈ are worked out from the molar mass of the structure shown.

Key:
Rat = details: compared with GHB, according to EP 0 932 597 B1; cited from earlier work
[1] = Thermodynamic stability / interconversion of the polymorphs; assay type: physicochemical
[2] = Solubility of the polymorphs at different pH (HPLC assay); assay type: physicochemical
Experimental: Both samples of powder (Form A and Form B) were used in order to evaluate the solubility properties of the two polymorphs at different pH.
The two samples were tested in the following pH conditions: • Hydrochloric acid buffer at pH=1.2 • Acetic acid at pH=3.0 • Phosphate buffer at pH=3.0 • Phosphate buffer at pH=4.6 • Phosphate buffer at pH=6.0 • Phosphate buffer at pH=7.4 • Alkaline phosphate buffer at pH=8.0
0.5 g of each samples were dissolved in a glass flask using 100 ml of the appropriate buffer. The two samples were then kept under stirring for 30 minutes. If the samples were completed dissolved, 1 additional gram was added in the flask and stirred for 30 minutes. The procedure was repeated till the presence of undissolved product in the bottom of the flask. After such a dissolution procedure, the samples were stored for 24 hours and then the dissolved amounts of Form A and Form B, respectively, were determined by HPLC assay.

For `COCCCC(=O)NCc1ccc(C(F)(F)F)cc1` [N-[4-(trifluoromethyl)benzyl]-4-methoxybutyramide], which “Potency and duration of action on motor activity” value (Rat) is on record?
Its value is “better than GHB”.

Which results are given for `COCCCC(=O)NCc1ccc(C(F)(F)F)cc1` [Polymorphic Form B, N-[4-(trifluoromethyl)benzyl]-4-methoxybutyramide]?
Thermodynamic stability, conversion of one form into the other [1]: thermodynamically stable, with no conversion of one into the other; Solubility, After 24 hours ([2]; Water): 162.64 µg/mL (≈ 591 µM); Solubility, Initial evaluation ([2]; Water): 125.44 µg/mL (≈ 456 µM); Differences in solubility / dissolution properties between the two forms ([2]; dissolution tests on each polymorph): have not shown differences in the solubility properties; Solubility, After 24 hours ([2]; pH 1.2): 164.47 µg/mL (≈ 597 µM); Solubility, Initial evaluation ([2]; pH 1.2): 136.12 µg/mL (≈ 494 µM); Solubility, After 24 hours ([2]; pH 3.0 (acetic acid)): 164.84 µg/mL (≈ 599 µM); Solubility, Initial evaluation ([2]; pH 3.0 (acetic acid)): 143.69 µg/mL (≈ 522 µM); Solubility, After 24 hours ([2]; pH 3.0 (phosphate buffer)): 156.73 µg/mL (≈ 569 µM); Solubility, Initial evaluation ([2]; pH 3.0 (phosphate buffer)): 126.87 µg/mL (≈ 461 µM); Solubility, After 24 hours ([2]; pH 4.6): 147.14 µg/mL (≈ 535 µM); Solubility, Initial evaluation ([2]; pH 4.6): 129.35 µg/mL (≈ 470 µM); Solubility, After 24 hours ([2]; pH 6.0): 143.2 µg/mL (≈ 520 µM); Solubility, Initial evaluation ([2]; pH 6.0): 125.95 µg/mL (≈ 458 µM); Solubility, After 24 hours ([2]; pH 6.8): 146.25 µg/mL (≈ 531 µM); Solubility, Initial evaluation ([2]; pH 6.8): 131.46 µg/mL (≈ 478 µM); Solubility, After 24 hours ([2]; pH 7.4): 143.79 µg/mL (≈ 522 µM); Solubility, Initial evaluation ([2]; pH 7.4): 113.60 µg/mL (≈ 413 µM); Solubility, After 24 hours ([2]; pH 8.0): 146.25 µg/mL (≈ 531 µM); Solubility, Initial evaluation ([2]; pH 8.0): 130.61 µg/mL (≈ 474 µM)
